Reference: patent publication US8609399B2, “Reducing insoluble deposit formation in ethanol production” (Global Process Technologies, Inc., priority 2007, dated 2013)

Assay: Solubility in Presence of Ethanol (temperature at which a precipitate became visible)
Format: physicochemical
Conditions: 800 ppm Mg2+ and 3600 ppm phytic acid
Text: In the table, the water and ethanol columns indicate the temperature at which a precipitate became visible in a solution containing 800 ppm Mg^2+ and 3600 ppm phytic acid.

Temperature (° C.; in 13% ethanol/87% water solution) at which a precipitate became visible (pH 4.35): 40 °C | Temperature (° C.; in 100% water solution) at which a precipitate became visible (pH 4.52): 80 °C | Temperature (° C.; in 13% ethanol/87% water solution) at which a precipitate became visible (pH 4.53): 30 °C | Temperature (° C.; in 13% ethanol/87% water solution) at which a precipitate became visible (pH 4.6): 21 °C | Temperature (° C.; in 100% water solution) at which a precipitate became visible (pH 4.97): 60 °C | Temperature (° C.; in 100% water solution) at which a precipitate became visible (pH 5.36): 40 °C | Temperature (° C.; in 100% water solution) at which a precipitate became visible (pH 5.6): 21 °C
Substance: magnesium phytate
